# Measurements: patent US7868006B2, “Heterocyclic substituted piperazines with CXCR3 antagonist activity” (Schering Corporation, priority 2005, dated 2011)
# Biological target: T1, human CXCR3 (N-delta 4) (Homo sapiens, UniProt P49682)
# T1 construct: CD8 leader (N); Flag tag (N); expressed in transfected cells; host or cells: mouse pro-B Ba/F3 cells, stably transfected with pME18Sneo-hCXCR3 (N-delta 4); membrane preparation
# T1 sequence (P49682 5-368 limits assumed): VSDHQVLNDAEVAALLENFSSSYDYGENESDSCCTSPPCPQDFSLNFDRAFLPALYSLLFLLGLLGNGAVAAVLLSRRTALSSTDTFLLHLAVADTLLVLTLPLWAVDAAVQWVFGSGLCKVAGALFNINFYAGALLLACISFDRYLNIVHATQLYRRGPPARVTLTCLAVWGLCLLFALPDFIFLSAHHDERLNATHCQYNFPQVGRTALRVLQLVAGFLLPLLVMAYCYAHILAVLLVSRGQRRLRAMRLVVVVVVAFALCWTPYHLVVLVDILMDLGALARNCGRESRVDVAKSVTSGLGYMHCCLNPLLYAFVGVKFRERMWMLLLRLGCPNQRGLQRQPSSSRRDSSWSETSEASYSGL
# Assay: Human CXCR3 (N-delta 4) Scintillation Proximity Assay (SPA), [125I] IP-10 binding
# Conditions: IC50 rating; Ba/F3-hCXCR3 (N-delta 4) membranes, 25 pM [125I] IP-10; read-out: IC50
# How it was run: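 Membranes from mouse Ba/F3 pro-B cells stably expressing Flag-tagged human CXCR3 (N-delta 4), 2 μg per point, bound to WGA SPA beads. Compound titrations competed with 25 pM [125I] IP-10 for 3 hr at room temperature in HEPES buffer with Ca2+, Mg2+, NaCl, 1.0% BSA; bead-bound radioactivity counted, […] values reported.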
row,Compound,IC50
1,CCNc1nnc(-c2cnc(N3CCN(C4CCN([C@H](CO)c5ccc(Cl)cc5)CC4)[C@@H](CC)C3)c(C)n2)o1 [Compound 163],< 25 nM
2,CCNc1nnc(-c2nc(Cl)c(N3CCN(C4CCN(C(=O)c5ccc(Cl)cc5)CC4)[C@@H](CC)C3)nc2N)o1 [Compound 20],< 25 nM
3,CC[C@H]1CN(c2ncc(C3=NNCN3)nc2C)[C@H](C)CN1C1CCN(Cc2ccc(F)c(F)c2)CC1 [Compound 114],< 25 nM
4,CCNc1nnc(-c2cnc(N3C[C@H](CC)N(C4CCN(C(=O)c5ccc(F)c(F)c5)CC4)C[C@H]3C)c(C)n2)o1 [Compound 160],< 25 nM
5,CC[C@H]1CN(c2nc(N)c(-c3nnc(C)o3)nc2Cl)CCN1C1CCN(C(=O)c2cc(F)c(Cl)nc2Cl)CC1 [Compound 31],< 25 nM
6,CC[C@H]1CN(c2ncc(-c3nnc(C(C)C)[nH]3)nc2C)CCN1C1CCN(C(=O)c2ccc(Cl)cc2)CC1 [Compound 141],25 to 100 nM
7,CC[C@H]1CN(c2ncc(-c3ncc[nH]3)nc2C)CCN1C1CCN(C(=O)c2ccc(Cl)c(F)c2)CC1 [Compound 124],< 25 nM
8,CC[C@H]1CN(c2ncc(-c3nc[nH]n3)nc2C)[C@H](C)CN1C1CCN(Cc2ccc(F)cc2)CC1 [Compound 106],< 25 nM
9,CCNc1nnc(-c2cnc(N3CCN(C4CCN(Cc5ccc(C(F)(F)F)cc5)CC4)[C@@H](CC)C3)c(C)n2)o1 [Compound 166],< 25 nM
10,CCc1nnc(-c2cnc(N3CCN(C4CCN(C(=O)c5ccc(Cl)cc5)CC4)[C@@H](CC)C3)c(C)n2)[nH]1 [Compound 129],< 25 nM
11,CC[C@H]1CN(c2ncc(-c3nnc(C)o3)nc2C)CCN1C1CCN(C(=O)c2ccc(Cl)cc2N)CC1 [Compound 21],< 25 nM
12,CCNc1nnc(-c2cnc(N3CCN(C4CCN(C(=O)c5ccc(C(F)(F)F)cc5)CC4)[C@@H](CC)C3)c(C)n2)o1 [Compound 176],< 25 nM
13,CC[C@H]1CN(c2nc(N)c(-c3nnc(N(C)C)o3)nc2Cl)CCN1C1CCN(Cc2ccc(Cl)cc2)CC1 [Compound 29],< 25 nM
14,CC[C@H]1CN(c2nc(N)c(-c3nnc(N)o3)nc2Cl)CCN1C1CCN(C(=O)c2ccc(Cl)cc2)CC1 [Compound 36],< 25 nM
15,CC[C@H]1CN(c2nc(N)c(-c3nnc(NC(C)C)o3)nc2Cl)CCN1C1CCN(C(=O)c2ccc(Cl)nc2N)CC1 [Compound 11],< 25 nM
16,CCNc1nnc(-c2cnc(N3C[C@H](CC)N(C4CCN(Cc5ccc(OC(F)(F)F)cc5)CC4)C[C@H]3C)c(C)n2)o1 [Compound 185],< 25 nM
17,CC[C@H]1CN(c2ncc(-c3nnc(N)o3)nc2C)[C@H](C)CN1C1CCN(Cc2ccc(OC(F)(F)F)cc2)CC1 [Compound 167],< 25 nM
18,CCNc1nnc(-c2cnc(N3CCN(C4CCN(C(=O)c5ccc(Cl)nc5N)CC4)[C@@H](CC)C3)c(Cl)n2)s1 [Compound 18],< 25 nM
19,CCOC(=O)c1nnc(-c2nc(Cl)c(N3CCN(C4CCN(C(=O)c5ccc(Cl)cc5)CC4)[C@@H](CC)C3)nc2N)o1 [Compound 91],> 100 nM
20,CC[C@H]1CN(c2nc(N)c(-c3nnc(C(C)(C)O)o3)nc2Cl)CCN1C1CCN(Cc2ccc(Cl)cc2)CC1 [Compound 28],< 25 nM

row,Compound,IC50
1,CC[C@H]1CN(c2ncc(-c3nc[nH]n3)nc2C)[C@H](C)CN1C1CCN(Cc2ccc(Cl)cc2)CC1 [Compound 112],< 25 nM
2,CC[C@H]1CN(c2nc(N)c(-c3nnc(CNC(=O)C(F)(F)F)o3)nc2Cl)CCN1C1CCN(C(=O)c2ccc(Cl)nc2N)CC1 [Compound 46],< 25 nM
3,CCNc1nnc(-c2cnc(N3CCN(C4CCN(C(=O)c5ccc(Cl)nc5N)CC4)[C@@H](CC)C3)c(Cl)n2)o1 [Compound 10],< 25 nM
4,CCNc1nnc(-c2cnc(N3CCN(C4CCN(C(=O)c5ccc(CC)nc5N)CC4)[C@@H](CC)C3)c(C)n2)o1 [Compound 153],25 to 100 nM
5,CCNc1nnc(-c2cnc(N3CCN(C4CCN(C(=O)c5ccc(Cl)s5)CC4)[C@@H](CC)C3)c(C)n2)o1 [Compound 149],< 25 nM
6,CC[C@H]1CN(c2nc(N)c(-c3nnc(N)o3)nc2Cl)CCN1C1CCN(Cc2ccc(Cl)cc2F)CC1 [Compound 3],< 25 nM
7,CC[C@H]1CN(c2nc(N)c(-c3nnc(C)o3)nc2Cl)CCN1C1CCN(Cc2ccc(Cl)cc2C#N)CC1 [Compound 48],< 25 nM
8,CC[C@H]1CN(c2nc(N)c(-c3nc(N)no3)nc2Cl)CCN1C1CCN(C(=O)c2ccc(Cl)nc2N)CC1 [Compound 84],> 100 nM
9,CCNc1nnc(-c2cnc(N3CCN(C4CCN(C(=O)c5ccc(C)cc5)CC4)[C@@H](CC)C3)c(C)n2)o1 [Compound 126],< 25 nM
10,CC[C@H]1CN(c2ncc(-c3nnc(NC)o3)nc2C)[C@H](C)CN1C1CCN(C(=O)c2ccc(Cl)cc2)CC1 [Compound 143],< 25 nM
11,CC[C@H]1CN(c2nc(N)c(-c3nnc(C(C)(C)O)o3)nc2Cl)CCN1C1CCN(C(=O)c2ccc(Cl)cc2)CC1 [Compound 78],25 to 100 nM
12,CC[C@H]1CN(c2ncc(-c3nc4ccccc4[nH]3)nc2C)CCN1C1CCN(C(=O)c2ccc(Cl)cc2)CC1 [Compound 146],< 25 nM
13,CCNc1nnc(-c2cnc(N3C[C@H](CC)N(C4CCN(Cc5ccc(Cl)cc5O)CC4)C[C@H]3C)c(C)n2)o1 [Compound 168],< 25 nM
14,CCNc1nnc(-c2cnc(N3C[C@H](CC)N(C4CCN(C(=O)c5ccc(Cl)nc5N)CC4)C[C@H]3C)c(C(F)(F)F)n2)o1 [Compound 98],< 25 nM
15,CC[C@H]1CN(c2nc(N)c(-c3nnc(CN)o3)nc2Cl)CCN1C1CCN(C(=O)c2ccc(Cl)nc2N)CC1 [Compound 34],< 25 nM
16,CC[C@H]1CN(c2nc(N)c(-c3nnc(CO)o3)nc2Cl)CCN1C1CCN([C@H](CO)c2ccc(Cl)cc2)CC1 [Compound 69],< 25 nM
17,CC[C@H]1CN(c2ncc(-c3nnc(N)o3)nc2C)[C@H](C)CN1C1CCN(Cc2ccc(Cl)cc2)CC1 [Compound 123],< 25 nM
18,CC[C@H]1CN(c2ncc(-c3nnc(C)o3)nc2Cl)CCN1C1CCN(C(=O)c2ccc(Cl)cc2)CC1 [Compound 32],< 25 nM
19,CC[C@H]1CN(c2nc(N)c(-c3nnc(N(C)C)o3)nc2Cl)CCN1C1CCN(C(=O)c2ccc(Cl)nc2N)CC1 [Compound 71],< 25 nM
20,CC[C@H]1CN(c2nc(N)c(-c3nnc(NCC(=O)NC4CC4)o3)nc2C)CCN1C1CCN(C(=O)c2ccc(Cl)nc2N)CC1 [Compound 194],< 25 nM

# Now from value to compound:
row,IC50,Compound
1,< 25 nM,CCNc1nnc(-c2cnc(N3C[C@H](CC)N(C4CCN(Cc5ccc(O)cc5)CC4)C[C@H]3C)c(C)n2)o1 [Compound 136]
2,< 25 nM,CCNc1nnc(-c2cnc(N3CCN(C4CCN(C(=O)c5ccc(Cl)nc5N)CC4)[C@@H](CC)C3)c(C(F)(F)F)n2)o1 [Compound 103]
3,< 25 nM,CC[C@H]1CN(c2nc(N)c(-c3nnc(CO)o3)nc2Cl)CCN1C1CCN([C@@H](CO)c2ccc(Cl)cc2)CC1 [Compound 6]
4,25 to 100 nM,CCNc1nnc(-c2cnc(N3CCN(C4CCN(C(=O)c5ccc(CC)cc5)CC4)[C@@H](CC)C3)c(C)n2)o1 [Compound 139]
5,< 25 nM,CC[C@H]1CN(c2ncc(-c3nnc(NC4(C)CC4)o3)nc2C)[C@H](C)CN1C1CCN(C(=O)c2ccc(Cl)nc2N)CC1 [Compound 186]
6,< 25 nM,CC[C@H]1CN(c2nc(N)c(-c3nnc(C)o3)nc2Cl)CCN1C1CCN([C@H](CO)c2ccc(Cl)cc2)CC1 [Compound 62]
7,< 25 nM,CC[C@H]1CN(c2nc(N)c(-c3nnc(C)o3)nc2Cl)CCN1C1CCN([C@@H](CO)c2ccc(Cl)cc2)CC1 [Compound 5]
8,< 25 nM,CCNc1nnc(-c2cnc(N3CCN(C4CCN(C(=O)c5ccc(Cl)c(F)c5)CC4)[C@@H](CC)C3)c(C)n2)o1 [Compound 164]
9,< 25 nM,CC[C@H]1CN(c2ncc(-c3nc[nH]n3)nc2C)CCN1C1CCN(C(=O)c2ccc(Cl)nc2N)CC1 [Compound 38]
10,< 25 nM,CC[C@H]1CN(c2ncc(-c3nnc(C)o3)nc2C)CCN1C1CCN(C(=O)c2ccc(OC(F)(F)F)cc2)CC1 [Compound 65]
11,< 25 nM,CCNc1nnc(-c2cnc(N3C[C@H](CC)N(C4CCN(C(=O)c5ccc(Cl)nc5N)CC4)C[C@H]3C)c(Cl)n2)o1 [Compound 100]
12,< 25 nM,CC[C@H]1CN(c2nc(N)c(-c3nnc(C)o3)nc2Cl)CCN1C1CCN(Cc2ccc(Cl)cc2C(N)=O)CC1 [Compound 8]
13,< 25 nM,CC[C@H]1CN(c2nc(N)c(-c3nnco3)nc2Cl)CCN1C1CCN(Cc2ccc(Cl)cc2)CC1 [Compound 50]
14,< 25 nM,CC[C@H]1CN(c2ncc(-c3nnc(N)o3)nc2C)[C@H](C)CN1C1CCN([C@@H](C)c2ccc(OC(F)(F)F)cc2)CC1 [Compound 177]
15,< 25 nM,CCNc1nnc(-c2cnc(N3C[C@H](CC)N(C4CCN(C(=O)c5ccc(Cl)nc5N)CC4)C[C@H]3C)c(C)n2)o1 [Compound 97]
16,< 25 nM,CC[C@H]1CN(c2nc(N)c(-c3nnc(C)o3)nc2Cl)CCN1C1CCN(Cc2ccc(Cl)cc2-c2nnn(C)n2)CC1 [Compound 58]
17,< 25 nM,CC[C@H]1CN(c2ncc(-c3nc[nH]n3)nc2C)[C@H](C)CN1C1CCN(Cc2ccc(OC(F)(F)F)cc2)CC1 [Compound 148]
18,25 to 100 nM,CC[C@H]1CN(c2nc(N)c(-c3nnc(C(=O)NCC(F)(F)F)o3)nc2Cl)CCN1C1CCN(C(=O)c2ccc(Cl)cc2)CC1 [Compound 77]
19,< 25 nM,CC[C@H]1CN(c2ncc(-c3nc[nH]n3)nc2C)[C@H](C)CN1C1CCN(C(=O)c2ccc(Cl)c(F)c2)CC1 [Compound 134]
